Here are results for four molecules from US20220317138A1, “METHODS FOR DETERMINING THE CONCENTRATION OF A CARBAPENEM ANTIBIOTIC IN A BIOLOGICAL SAMPLE” (priority 2019, published 2022).

Where two headings read alike, the source gives them in different places.

What all share (type): biochemical
The test system of experiment [1] is Per2 beta-lactamase (class A). Briefly: Screening of beta-lactamases by competition, nitrocefin as reporter substrate.
Experiment [2] concerns the target P99 beta-lactamase (class C) (Enterobacter cloacae, UniProt P05364). Conditions: nitrocefin reporter.
Experiment [3] deals with T1, beta-lactamase class D OXA-48 (Klebsiella pneumoniae, UniProt Q6XEC0). Conditions: for Accuracy <> (average) / [Meropenem] <> (average): average of 5 replicates. From the text: The specificity (or selectivity) of the method according to an embodiment of the invention is defined as the ability of the method to measure the concentration of a carbapenem antibiotic (such as meropenem) in presence of an excess of another beta-lactam antibiotic (second beta-lactam) currently used in ICUs (see Table 4).
T1 sequence (Q6XEC0 23-265 limits assumed): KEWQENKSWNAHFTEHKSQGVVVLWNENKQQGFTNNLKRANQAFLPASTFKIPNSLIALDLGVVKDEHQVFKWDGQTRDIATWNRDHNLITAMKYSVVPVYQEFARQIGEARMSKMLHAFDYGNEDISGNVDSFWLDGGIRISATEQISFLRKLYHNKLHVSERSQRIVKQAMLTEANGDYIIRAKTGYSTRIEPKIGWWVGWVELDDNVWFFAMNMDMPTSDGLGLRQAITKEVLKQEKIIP
To determine the specificity of the method illustrating the invention for carbapenem antibiotics, in particular meropenem, versus other beta-lactam antibiotics, stock-solutions of second beta-lactam antibiotics were prepared in water.
An excess of a second beta-lactam concentration of up to 10 times the concentration of meropenem was used.

Experiment [4] deals with AmpCHD beta-lactamase (class C). Briefly: Screening of beta-lactamases by competition, nitrocefin as reporter substrate.
Experiment [5] addresses T1, beta-lactamase class D OXA-48. Conditions: calibration curves FIG. 2, FIG. 3.
Where [6] appears, read: Meropenem 1.2 mg/L, second β-lactam 10.0 mg/L (8.4 times excess).
Where [7] appears, read: Meropenem 20.0 mg/L, second β-lactam 200.0 mg/L (10 times excess).

Sequence of P99 beta-lactamase (class C) (P05364 21-381): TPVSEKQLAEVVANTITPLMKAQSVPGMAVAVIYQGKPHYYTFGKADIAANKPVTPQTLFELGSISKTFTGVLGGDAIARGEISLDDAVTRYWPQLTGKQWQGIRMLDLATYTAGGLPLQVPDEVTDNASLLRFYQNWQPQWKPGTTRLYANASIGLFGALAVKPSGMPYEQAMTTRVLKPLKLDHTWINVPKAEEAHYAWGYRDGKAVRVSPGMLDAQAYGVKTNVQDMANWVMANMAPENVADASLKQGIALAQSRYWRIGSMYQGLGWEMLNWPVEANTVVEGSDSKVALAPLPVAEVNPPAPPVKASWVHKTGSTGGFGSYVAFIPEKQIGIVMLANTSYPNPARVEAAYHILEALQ

`Cc1onc(-c2ccccc2)c1C(=O)N[C@@H]1C(=O)N2[C@@H]1SC(C)(C)[C@@H]2C(=O)O` [Penstapho ®]: the “hydrolysis rate symbol, (Vmax/V0)-1” value in experiment [1] is “++ (1-10)”. For the same molecule, in experiment [2], the “hydrolysis rate symbol, (Vmax/V0)-1” value was “++++ (>100)”. Besides, in experiment [3] (setting [6]), the “Accuracy <> (average)” value is 119%, the “[Meropenem] <> (average)” value was 1.4 mg/L, the “Accuracy Replicate 1” value was 115% and the “[Meropenem] Replicate 1” value came out at 1.3 mg/L. Further, in experiment [3] (setting [6]), the “Accuracy Replicate 2” value amounted to 123%, the “[Meropenem] Replicate 2” value is on record as 1.4 mg/L, the “Accuracy Replicate 3” value came out at 121% and the “[Meropenem] Replicate 3” value turned out to be 1.4 mg/L. Besides, in experiment [3] (setting [6]), the “Accuracy Replicate 4” value is given as 122%, the “[Meropenem] Replicate 4” value was determined as 1.4 mg/L, the “Accuracy Replicate 5” value was found to be 116% and the “[Meropenem] Replicate 5” value was 1.3 mg/L. In experiment [3] (setting [7]), the “Accuracy <> (average)” value is 103%, the “[Meropenem] <> (average)” value was determined as 22.9 mg/L, the “Accuracy Replicate 1” value is on record as 98% and the “[Meropenem] Replicate 1” value amounted to 21.8 mg/L. Moreover, in experiment [3] (setting [7]), the “Accuracy Replicate 2” value is given as 104%, the “[Meropenem] Replicate 2” value came out at 23.2 mg/L, the “Accuracy Replicate 3” value is listed as 104% and the “[Meropenem] Replicate 3” value amounted to 23.1 mg/L. Moreover, in experiment [3] (setting [7]), the “Accuracy Replicate 4” value stood at 107%, the “[Meropenem] Replicate 4” value stood at 23.8 mg/L, the “Accuracy Replicate 5” value was determined as 102% and the “[Meropenem] Replicate 5” value is given as 22.7 mg/L. Further, the “hydrolysis rate symbol, (Vmax/V0)-1” value in experiment [4] is given as “++ (1-10)”.

Consider `CC(C)(O/N=C(\C(=O)N[C@@H]1C(=O)N2C(C(=O)[O-])=C(C[n+]3ccccc3)CS[C@H]12)c1csc(N)n1)C(=O)O` [Ceftazidime], for which the “hydrolysis rate symbol, (Vmax/V0)-1” value in experiment [2] is “+ (0.1-1)”. Further, in experiment [3] (setting [6]), the “Accuracy <> (average)” value is 111%, the “[Meropenem] <> (average)” value is on record as 1.3 mg/L, the “Accuracy Replicate 1” value is 108% and the “[Meropenem] Replicate 1” value was 1.3 mg/L. In addition, in experiment [3] (setting [6]), the “Accuracy Replicate 2” value was found to be 105%, the “[Meropenem] Replicate 2” value amounted to 1.2 mg/L, the “Accuracy Replicate 3” value worked out at 108% and the “[Meropenem] Replicate 3” value turned out to be 1.3 mg/L. Besides, in experiment [3] (setting [6]), the “Accuracy Replicate 4” value is listed as 112%, the “[Meropenem] Replicate 4” value was found to be 1.3 mg/L, the “Accuracy Replicate 5” value turned out to be 118% and the “[Meropenem] Replicate 5” value was found to be 1.4 mg/L. In experiment [3] (setting [7]), the “Accuracy <> (average)” value was found to be 100%, the “[Meropenem] <> (average)” value is on record as 20.1 mg/L, the “Accuracy Replicate 1” value was found to be 102% and the “[Meropenem] Replicate 1” value stood at 20.6 mg/L. In addition, in experiment [3] (setting [7]), the “Accuracy Replicate 2” value was 97%, the “[Meropenem] Replicate 2” value is listed as 19.6 mg/L, the “Accuracy Replicate 3” value was determined as 100% and the “[Meropenem] Replicate 3” value is listed as 20.1 mg/L. In experiment [3] (setting [7]), the “Accuracy Replicate 4” value was 100%, the “[Meropenem] Replicate 4” value was 20.2 mg/L, the “Accuracy Replicate 5” value is given as 99% and the “[Meropenem] Replicate 5” value is recorded as 20.0 mg/L.

As to `C[C@@H](O)[C@H]1C(=O)N2C(C(=O)O)=C(S[C@@H]3CN[C@H](C(=O)Nc4cccc(C(=O)O)c4)C3)[C@H](C)[C@H]12` [ertapenem], in experiment [5], the “determining the concentration using OXA-48” value is reported as “possible”.

As for `C[C@@H](O)[C@H]1C(=O)N2C(C(=O)O)=C(S[C@@H]3CN[C@H](CNS(N)(=O)=O)C3)[C@H](C)[C@H]12` [doripenem], in experiment [5], the “determining the concentration using OXA-48” value is reported as “possible”.
